Measurements published in paper PMC8162438, “Cancer cell-selective modulation of mitochondrial respiration and metabolism by potent organogold(III) dithiocarbamates” (Chemical Science, 2020).
“Also recorded” adds a separate entry of the source.

Assay: UV-vis stability in PBS, DMEM and RPMI-1640
Type: physicochemical
Conditions: 50 μM, DMEM, RPMI-1640, 37 °C, over 24 h
Excerpt: We next evaluated the stability of all ten complexes in three relevant biological media, namely, PBS (phosphate-buffered saline), DMEM (Dulbecco's modified eagle medium), and RPMI-1640 (Roswell Park Memorial Institute-1640). RPMI-1640 contain several biological nucleophiles such as amino acids and extracellular relevant levels of GSH, which are common sources of reductants. Development of new drug molecules require proper characterization of compound stability in solution. To evaluate their stability, the complexes were prepared as a stock solution in DMSO (5 mM) and diluted with PBS or DMEM at room temperature to a final concentration of 50 μM. […]
UV-vis Stability in DMEM, PBS and RPMI-1640 at 37 °C. All spectra were recorded on a Shimadzu UV-1280 model instrument. […] Time periods of t = 0 h (after preparation of sample), 1 h, 6 h, 12 h, and 24 h were recorded. […] The absorbance profile was scanned from 650 nm to 240 nm for each scan. For each complex, the data were normalized to the highest absorbance at t = 0 h and plotted in GraphPad Prism 6. […]
Reactivity with GSH (UV-vis Spectroscopy). […] All spectra were recorded on a Shimadzu UV-1280 model instrument.
A blank was prepared by mixing 50 µL of DMSO and 1.95 mL of PBS. Time intervals of 5 minutes and 12 h were recorded. […] For each reaction, the spectrum was normalized to the highest absorbance and plotted in GraphPad Prism 6. […]

| Compound | Stability in biological media (UV-vis absorbance) |
| --- | --- |
| C[N+](C)=C1[S][Au-2]2([S]1)[c]1ccccc1C(=O)c1cccc[n+]12.F[P-](F)(F)(F)(F)F (centres unmarked) [1a] | no significant decrease in absorbance |
| C[N+](C)=C1[S][Au-2]2([S]1)[c]1ccccc1Cc1cccc[n+]12.F[P-](F)(F)(F)(F)F (centres unmarked) [2a] | higher stability in PBS, and DMEM; also recorded: no significant decrease in absorbance |
